Experiments:
[1] = Ratio of drug uptake in occipital lobe to cerebellum in anesthetized cynomolgus monkey after 185 mins postinjection; format: ADME, organism-based, Macaca fascicularis; conditions: in vivo
[2] = Ratio of drug uptake in frontal lobe to cerebellum in anesthetized cynomolgus monkey after 95 mins postinjection; format: ADME, organism-based, Macaca fascicularis; conditions: in vivo
Medulla [3] = assay: Drug uptake in anesthetized cynomolgus monkey brain medulla after 1.5 mins postinjection; format: ADME, organism-based, Macaca fascicularis; conditions: in vivo, 0.025 h
Caudate [4] = assay: Drug uptake in anesthetized cynomolgus monkey brain caudate after 85 mins postinjection; format: ADME, organism-based, Macaca fascicularis, Caudate nucleus; conditions: in vivo
Midbrain [5] = assay: Drug uptake in anesthetized cynomolgus monkey brain midbrain after 75 mins postinjection; format: ADME, organism-based, Macaca fascicularis; set-up: unit not given here; conditions: in vivo, 1.25 h
[6] = Drug uptake in awake rhesus monkey brain medulla after 65 mins postinjection; format: ADME, organism-based, Macaca mulatta; conditions: in vivo
Medulla [7] = assay: Drug uptake in anesthetized cynomolgus monkey brain medulla after 65 mins postinjection; format: ADME, organism-based, Macaca fascicularis; conditions: in vivo
[8] = Drug uptake in anesthetized cynomolgus monkey brain occipital lobe after 6.5 mins postinjection; format: ADME, organism-based, Macaca fascicularis; set-up: unit not given here; conditions: in vivo
[9] = Ratio of drug uptake in putamen to cerebellum in anesthetized cynomolgus monkey after 3.5 mins postinjection; format: ADME, organism-based, Macaca fascicularis; conditions: in vivo
Medulla [10] = assay: Drug uptake in anesthetized cynomolgus monkey brain medulla after 165 mins postinjection; format: ADME, organism-based, Macaca fascicularis; conditions: in vivo, 2.75 h
[11] = Drug uptake in awake rhesus monkey brain frontal lobe after 105 mins postinjection; format: ADME, organism-based, Macaca mulatta; conditions: in vivo, 1.75 h
Pons [12] = assay: Drug uptake in anesthetized cynomolgus monkey brain pons after 165 mins postinjection; format: ADME, organism-based, Macaca fascicularis; conditions: in vivo, 2.75 h
Pons [13] = assay: Drug uptake in anesthetized cynomolgus monkey brain pons after 215 mins postinjection; format: ADME, organism-based, Macaca fascicularis; conditions: in vivo
[14] = Ratio of drug uptake in thalamus to cerebellum in awake rhesus monkey after 17.5 mins postinjection; format: ADME, organism-based, Macaca mulatta; conditions: in vivo
[15] = Drug uptake in awake rhesus monkey brain putamen after 75 mins postinjection; format: ADME, organism-based, Macaca mulatta; conditions: in vivo, 1.25 h
Medulla [16] = assay: Drug uptake in anesthetized cynomolgus monkey brain medulla after 12.5 mins postinjection; format: ADME, organism-based, Macaca fascicularis; conditions: in vivo
[17] = Drug uptake in anesthetized cynomolgus monkey brain occipital lobe after 18.5 mins postinjection; format: ADME, organism-based, Macaca fascicularis; conditions: in vivo
Thalamus [18] = assay: Drug uptake in anesthetized cynomolgus monkey brain thalamus after 15.5 mins postinjection; format: ADME, organism-based, Macaca fascicularis; set-up: unit not given here; conditions: in vivo
Pons [19] = assay: Drug uptake in anesthetized cynomolgus monkey brain pons after 95 mins postinjection; format: ADME, organism-based, Macaca fascicularis; conditions: in vivo
[20] = Ratio of drug uptake in thalamus to cerebellum in awake rhesus monkey after 105 mins postinjection; format: ADME, organism-based, Macaca mulatta; conditions: in vivo, 1.75 h
[21] = Ratio of drug uptake in midbrain to cerebellum in awake rhesus monkey after 7.5 mins postinjection; format: ADME, organism-based, Macaca mulatta; conditions: in vivo, 0.125 h
[22] = Ratio of drug uptake in frontal lobe to cerebellum in anesthetized cynomolgus monkey after 3.5 mins postinjection; format: ADME, organism-based, Macaca fascicularis; conditions: in vivo
Midbrain [23] = assay: Drug uptake in anesthetized cynomolgus monkey brain midbrain after 27.5 mins postinjection; format: ADME, organism-based, Macaca fascicularis; set-up: unit not given here; conditions: in vivo
[24] = Ratio of drug uptake in occipital lobe to cerebellum in anesthetized cynomolgus monkey after 195 mins postinjection; format: ADME, organism-based, Macaca fascicularis; conditions: in vivo, 3.25 h
[25] = Drug uptake in anesthetized cynomolgus monkey brain cerebellum after 65 mins postinjection; format: ADME, organism-based, Macaca fascicularis; conditions: in vivo
Pons [26] = assay: Drug uptake in anesthetized cynomolgus monkey brain pons after 12.5 mins postinjection; format: ADME, organism-based, Macaca fascicularis; conditions: in vivo
Thalamus [27] = assay: Drug uptake in anesthetized cynomolgus monkey brain thalamus after 225 mins postinjection; format: ADME, organism-based, Macaca fascicularis; set-up: unit not given here; conditions: in vivo, 3.75 h
Thalamus [28] = assay: Drug uptake in anesthetized cynomolgus monkey brain thalamus after 175 mins postinjection; format: ADME, organism-based, Macaca fascicularis; set-up: unit not given here; conditions: in vivo
Caudate [29] = assay: Drug uptake in anesthetized cynomolgus monkey brain caudate after 235 mins postinjection; format: ADME, organism-based, Macaca fascicularis, Caudate nucleus; conditions: in vivo
Midbrain [30] = assay: Drug uptake in anesthetized cynomolgus monkey brain midbrain after 2.5 mins postinjection; format: ADME, organism-based, Macaca fascicularis; set-up: unit not given here; conditions: in vivo
[31] = Ratio of drug uptake in medulla to cerebellum in anesthetized cynomolgus monkey after 35 mins postinjection; format: ADME, organism-based, Macaca fascicularis; conditions: in vivo
Thalamus [32] = assay: Drug uptake in anesthetized cynomolgus monkey brain thalamus after 4.5 mins postinjection; format: ADME, organism-based, Macaca fascicularis; set-up: unit not given here; conditions: in vivo, 0.075 h
Pons [33] = assay: Drug uptake in anesthetized cynomolgus monkey brain pons after 155 mins postinjection; format: ADME, organism-based, Macaca fascicularis; conditions: in vivo
Pons [34] = assay: Drug uptake in anesthetized cynomolgus monkey brain pons after 4.5 mins postinjection; format: ADME, organism-based, Macaca fascicularis; conditions: in vivo, 0.075 h
[35] = Drug uptake in awake rhesus monkey brain frontal lobe after 75 mins postinjection; format: ADME, organism-based, Macaca mulatta; conditions: in vivo, 1.25 h
Thalamus [36] = assay: Drug uptake in anesthetized cynomolgus monkey brain thalamus after 95 mins postinjection; format: ADME, organism-based, Macaca fascicularis; set-up: unit not given here; conditions: in vivo
[37] = Ratio of drug uptake in medulla to cerebellum in anesthetized cynomolgus monkey after 155 mins postinjection; format: ADME, organism-based, Macaca fascicularis; conditions: in vivo
[38] = Ratio of drug uptake in pons to cerebellum in awake rhesus monkey after 10.5 mins postinjection; format: ADME, organism-based, Macaca mulatta; conditions: in vivo, 0.175 h
[39] = Drug uptake in awake rhesus monkey brain medulla after 7.5 mins postinjection; format: ADME, organism-based, Macaca mulatta; conditions: in vivo, 0.125 h
Thalamus [40] = assay: Drug uptake in anesthetized cynomolgus monkey brain thalamus after 9.5 mins postinjection; format: ADME, organism-based, Macaca fascicularis; set-up: unit not given here; conditions: in vivo
Medulla [41] = assay: Drug uptake in anesthetized cynomolgus monkey brain medulla after 4.5 mins postinjection; format: ADME, organism-based, Macaca fascicularis; conditions: in vivo, 0.075 h
Caudate [42] = assay: Drug uptake in anesthetized cynomolgus monkey brain caudate after 145 mins postinjection; format: ADME, organism-based, Macaca fascicularis, Caudate nucleus; conditions: in vivo
[43] = Drug uptake in anesthetized cynomolgus monkey brain frontal lobe after 215 mins postinjection; format: ADME, organism-based, Macaca fascicularis; conditions: in vivo
Caudate [44] = assay: Drug uptake in anesthetized cynomolgus monkey brain caudate after 65 mins postinjection; format: ADME, organism-based, Macaca fascicularis, Caudate nucleus; conditions: in vivo
Putamen [45] = assay: Drug uptake in anesthetized cynomolgus monkey brain putamen after 135 mins postinjection; format: ADME, organism-based, Macaca fascicularis; conditions: in vivo, 2.25 h
Putamen [46] = assay: Drug uptake in anesthetized cynomolgus monkey brain putamen after 125 mins postinjection; format: ADME, organism-based, Macaca fascicularis; conditions: in vivo
[47] = Ratio of drug uptake in caudate to cerebellum in anesthetized cynomolgus monkey after 95 mins postinjection; format: ADME, organism-based, Macaca fascicularis; conditions: in vivo
[48] = Ratio of drug uptake in putamen to cerebellum in anesthetized cynomolgus monkey after 9.5 mins postinjection; format: ADME, organism-based, Macaca fascicularis; conditions: in vivo
Thalamus [49] = assay: Drug uptake in anesthetized cynomolgus monkey brain thalamus after 202.5 mins postinjection; format: ADME, organism-based, Macaca fascicularis; conditions: in vivo, 3.375 h
Caudate [50] = assay: Drug uptake in anesthetized cynomolgus monkey brain caudate after 187.5 mins postinjection; format: ADME, organism-based, Macaca fascicularis, Caudate nucleus; conditions: in vivo, 3.125 h
[51] = Drug uptake in anesthetized cynomolgus monkey brain occipital lobe after 202.5 mins postinjection; format: ADME, organism-based, Macaca fascicularis; conditions: in vivo, 3.375 h
[52] = Drug uptake in anesthetized cynomolgus monkey brain cerebellum after 27.5 mins postinjection; format: ADME, organism-based, Macaca fascicularis; conditions: in vivo
[53] = Ratio of drug uptake in midbrain to cerebellum in anesthetized cynomolgus monkey after 145 mins postinjection; format: ADME, organism-based, Macaca fascicularis; conditions: in vivo
[54] = Drug uptake in anesthetized cynomolgus monkey brain frontal lobe after 197.5 mins postinjection; format: ADME, organism-based, Macaca fascicularis; conditions: in vivo
[55] = Ratio of drug uptake in thalamus to cerebellum in anesthetized cynomolgus monkey after 135 mins postinjection; format: ADME, organism-based, Macaca fascicularis; conditions: in vivo, 2.25 h
[56] = Ratio of drug uptake in medulla to cerebellum in anesthetized cynomolgus monkey after 18.5 mins postinjection; format: ADME, organism-based, Macaca fascicularis; conditions: in vivo
[57] = Drug uptake in anesthetized cynomolgus monkey brain occipital lobe after 165 mins postinjection; format: ADME, organism-based, Macaca fascicularis; conditions: in vivo, 2.75 h
[58] = Ratio of drug uptake in midbrain to cerebellum in anesthetized cynomolgus monkey after 85 mins postinjection; format: ADME, organism-based, Macaca fascicularis; conditions: in vivo
Thalamus [59] = assay: Drug uptake in anesthetized cynomolgus monkey brain thalamus after 192.5 mins postinjection; format: ADME, organism-based, Macaca fascicularis; conditions: in vivo
Medulla [60] = assay: Drug uptake in anesthetized cynomolgus monkey brain medulla after 207.5 mins postinjection; format: ADME, organism-based, Macaca fascicularis; conditions: in vivo
Putamen [61] = assay: Drug uptake in anesthetized cynomolgus monkey brain putamen after 197.5 mins postinjection; format: ADME, organism-based, Macaca fascicularis; conditions: in vivo
Midbrain [62] = assay: Drug uptake in anesthetized cynomolgus monkey brain midbrain after 197.5 mins postinjection; format: ADME, organism-based, Macaca fascicularis; conditions: in vivo

Structure (SMILES): O=C(OCC[18F])C1C2CCC(CC1c1ccc(/C=C\I)cc1)N2 (configuration not stated)
- Ratio [1]: 1.4
- Ratio [2]: 0.9
- Drug uptake (Medulla [3]): 0.14
- Drug uptake (Caudate [4]): 3.03
- Drug uptake (Midbrain [5]): 4.41
- Drug uptake [6]: 2.28
- Drug uptake (Medulla [7]): 3.75
- Drug uptake [8]: 1.21
- Ratio [9]: 1
- Drug uptake (Medulla [10]): 3.58
- Drug uptake [11]: 2.07
- Drug uptake (Pons [12]): 3.54
- Drug uptake (Pons [13]): 3.39
- Ratio [14]: 1.3
- Drug uptake [15]: 3.38
- Drug uptake (Medulla [16]): 2.59
- Drug uptake [17]: 1.81
- Drug uptake (Thalamus [18]): 2.54
- Drug uptake (Pons [19]): 3.5
- Ratio [20]: 2.8
- Ratio [21]: 1
- Ratio [22]: 0.5
- Drug uptake (Midbrain [23]): 3.19
- Ratio [24]: 1.4
- Drug uptake [25]: 2.44
- Drug uptake (Pons [26]): 1.88
- Drug uptake (Thalamus [27]): 3.35
- Drug uptake (Thalamus [28]): 3.78
- Drug uptake (Caudate [29]): 2.61
- Drug uptake (Midbrain [30]): 0.4
- Ratio [31]: 1.4
- Drug uptake (Thalamus [32]): 1.21
- Drug uptake (Pons [33]): 3.43
- Drug uptake (Pons [34]): 0.8
- Drug uptake [35]: 2.18
- Drug uptake (Thalamus [36]): 4.15
- Ratio [37]: 2.5
- Ratio [38]: 0.9
- Drug uptake [39]: 1.51
- Drug uptake (Thalamus [40]): 2.06
- Drug uptake (Medulla [41]): 1.36
- Drug uptake (Caudate [42]): 3.05
- Drug uptake [43]: 1.6
- Drug uptake (Caudate [44]): 2.87
- Drug uptake (Putamen [45]): 4.33
- Drug uptake (Putamen [46]): 4.34
- Ratio [47]: 1.4

Structure (SMILES): O=C(OCCC[18F])C1C2CCC(CC1c1cccc(/C=C\Br)c1)N2 (configuration not stated)
- Ratio [48]: 0.9
- Ratio [2]: 0.9
- Drug uptake (Medulla [3]): 0.42
- Drug uptake (Caudate [4]): 5.23
- Drug uptake (Midbrain [5]): 6.07
- Drug uptake (Thalamus [49]): 3.84
- Drug uptake (Caudate [50]): 3.83
- Drug uptake (Medulla [7]): 5.61
- Drug uptake [51]: 2.71
- Drug uptake [52]: 5.61
- Drug uptake [8]: 3.31
- Ratio [9]: 0.8
- Drug uptake (Medulla [10]): 4.42
- Drug uptake (Pons [12]): 3.84
- Drug uptake (Pons [13]): 3.17
- Drug uptake (Medulla [16]): 5.82
- Ratio [53]: 1.8
- Drug uptake [54]: 2.23
- Drug uptake [17]: 4.35
- Drug uptake (Thalamus [18]): 4.64
- Drug uptake (Pons [19]): 4.68
- Ratio [55]: 1.6
- Ratio [56]: 1
- Ratio [22]: 0.5
- Drug uptake (Midbrain [23]): 6.06
- Drug uptake [57]: 3.22
- Drug uptake [25]: 4.29
- Drug uptake (Pons [26]): 4.51
- Drug uptake (Thalamus [27]): 3.52
- Ratio [58]: 1.5
- Drug uptake (Thalamus [28]): 4
- Drug uptake (Caudate [29]): 3.28
- Drug uptake (Midbrain [30]): 1.48
- Drug uptake (Thalamus [32]): 2.48
- Drug uptake (Pons [33]): 4.03
- Drug uptake (Pons [34]): 2.44
- Drug uptake (Thalamus [59]): 3.83
- Drug uptake (Thalamus [36]): 5.16
- Ratio [37]: 1.7
- Drug uptake (Medulla [60]): 3.58
- Drug uptake (Putamen [61]): 3.78
- Drug uptake (Thalamus [40]): 4.02
- Drug uptake (Medulla [41]): 3.95
- Drug uptake (Midbrain [62]): 4.54
- Drug uptake (Caudate [42]): 4.38
- Drug uptake [43]: 2.03
- Drug uptake (Caudate [44]): 5.22
- Drug uptake (Putamen [45]): 4.74
- Drug uptake (Putamen [46]): 4.82
- Ratio [47]: 1.3

From ChEMBL document CHEMBL1151757, “Synthesis, radiosynthesis, and biological evaluation of fluorine-18-labeled 2beta-carbo(fluoroalkoxy)-3beta-(3'-((Z)-2-haloethenyl)phenyl)nortropanes: candidate radioligands for in vivo imaging of the serotonin transporter with positron emission tomography” (J Med Chem, 2008)
